Source: US7417045B2, “Heterocyclic substituted pyridine or phenyl compounds with CXCR3 antagonist activity” (Schering Corporation, priority 2005, dated 2008)

Biological target: T1, human CXCR3 (N-delta 4) (Homo sapiens, UniProt P49682)
T1 construct: CD8 leader (N); Flag tag; expressed in transfected cells; membranes
T1 sequence (P49682 5-368 limits assumed): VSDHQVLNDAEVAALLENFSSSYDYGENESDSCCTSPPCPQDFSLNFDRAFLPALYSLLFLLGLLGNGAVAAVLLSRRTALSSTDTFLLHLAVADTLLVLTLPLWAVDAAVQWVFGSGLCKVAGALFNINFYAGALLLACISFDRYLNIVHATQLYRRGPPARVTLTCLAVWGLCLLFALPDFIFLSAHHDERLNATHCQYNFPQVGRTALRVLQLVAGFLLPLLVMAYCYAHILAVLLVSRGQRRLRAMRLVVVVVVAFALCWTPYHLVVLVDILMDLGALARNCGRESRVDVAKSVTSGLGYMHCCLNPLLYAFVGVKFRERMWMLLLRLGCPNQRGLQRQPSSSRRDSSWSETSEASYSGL
Assay: Human CXCR3 (N-delta 4) Scintillation Proximity Assay (SPA), [125I] IP-10 binding
Conditions: IC50 rating; [125I] IP-10 displacement, Ba/F3-hCXCR3 (N-delta 4) membranes
Excerpt: The inventive compounds can readily be evaluated to determine activity at The CXCR3 receptors by known methods, such as, for example, Development of Human CXCR3 (N-delta 4) Binding Assay.
Cloning and Expression of Human CXCR3 (N-Delta 4):
The DNA encoding human CXCR3 was cloned by PCR using human genomic DNA (Promega, Madison, Wis.) as a template. The PCR primers were designed based on the published sequence of human orphan receptor GPR9 (1) with incorporated restriction sites, a Kozak consensus sequence, CD8 leader and Flag tag. The PCR product was subcloned into the mammalian expression vector pME18Sneo, a derivative of the SR-alpha expression vector (designated as pME18Sneo-hCXCR3 (N-delta 4).
IL-3-dependent mouse pro-B cells Ba/F3 were transfected by electroporation in 0.4 ml Dulbecco's PBS containing 4×10^6 cells with 20 μg of pME18Sneo-hCXCR3 (N-delta 4) plasmid DNA. Cells were pulsed at 400 Volts, 100 OHMs, 960 μFd. The transfected cells were under selection with 1 mg/ml G418 (Life Technologies, Gaithersburg, Md.). G418-resistant Ba/F3 clones were screened for CXCR3 expression by specific binding of [^125I] IP-10 (NEN Life Science Products, Boston, Mass.).
Preparation of Ba/F3-hCXCR3 (N-Delta 4) Membranes
Ba/F3 cells expressing human CXCR3 (N-delta 4) were pelleted and resuspended in the lysis buffer containing 10 mM HEPES, pH 7.5 and Complete® protease inhibitors (1 tablet per 100 ml) (Boehringer Mannheim, Indianapolis, Ind.) at a cell density of 20×10^6 cells per ml. After 5 minutes incubation on ice, cells were transferred to 4639 cell disruption bomb (Parr Instrument, Moline, Ill.) and applied with 1,500 psi of nitrogen for 30 minutes on ice. Large cellular debris was removed by centrifugation at 1,000× g. Cell membrane in the supernatant was sedimented at 100,000× g. The membrane was resuspended in the lysis buffer supplemented with 10% sucrose and stored at −80° C. Total protein concentration of the membrane was determined by BCA method from Pierce (Rockford, Ill.).
Human CXCR3 (N-Delta 4) Scintillation Proximity Assay (SPA)
For each assay point, 2 μg of membrane was preincubated for 1 hr with 300 μg wheat germ agglutinin (WGA) coated SPA beads (Amersham, Arlington Heights, Ill.) in the binding buffer (50 mM HEPES, 1 mM CaCl2, 5 mM MgCl2, 125 mM NaCl, 0.002% NaN3, 1.0% BSA) at room temperature. The beads were spun down, washed once, resuspended in the binding buffer and transferred to a 96-well Isoplate (Wallac, Gaithersburg, Md.). 25 pM of [^125I] IP-10 with tested compounds in a series of titration were added to start the reaction. After 3 hr reaction at room temperature, the amount of [^125I] IP-10 bound to the SPA beads was determined with a Wallac 1450 Microbeta counter.

Row | Compound | IC50
1 | CC[C@H]1CN(c2ncc(-c3ncc[nH]3)cc2Cl)CCN1C1CCN(C(=O)c2ccc(C#CC(C)(C)O)cc2)CC1 [Compound 113] | 25 to 100 nM
2 | CC[C@H]1CN(c2ncc(-c3ncc[nH]3)cc2Cl)CCN1C1(C)CCN(Cc2ccc(Cl)cc2C(=O)OC)CC1 [Compound 151] | > 100 nM
3 | CC[C@H]1CN(c2ncc(-c3ncc[nH]3)cc2Cl)CCN1C1(C)CCN(C(C(=O)OC)c2ccc(Cl)cc2)CC1 (stereo partly drawn) [Compound 128] | 25 to 100 nM
4 | CC[C@H]1CN(c2ncc(-c3nnn[nH]3)cc2Cl)CCN1C1CCN(Cc2ccc(Cl)cc2F)CC1 [Compound 169] | > 100 nM
5 | CC[C@H]1CN(c2ncc(-c3ncc[nH]3)cc2Cl)CCN1C1CCN(C(=O)c2ccc(-c3cnco3)cc2)CC1 [Compound 117] | 25 to 100 nM
6 | CC[C@H]1CN(c2ncc(-c3ncc[nH]3)cc2Cl)CCN1C1CCN([C@@H](C(=O)NCC2CC2)c2ccc(Cl)cc2)CC1 [Compound 107] | 25 to 100 nM
7 | CC[C@H]1CN(c2ncc(C3=NCCN3)cc2Cl)CCN1C1CCN(Cc2ccc(C3CC3CO)cc2)CC1 (stereo partly drawn) [Compound 153] | > 100 nM
8 | CC[C@H]1CN(c2ncc(-c3nnc(CO)o3)cc2Cl)CCN1C1CCN(C(C(=O)OC)c2ccc(Cl)cc2)CC1 (stereo partly drawn) [Compound 124] | 25 to 100 nM
9 | CC[C@H]1CN(c2ncc(-c3ncc[nH]3)cc2Cl)CCN1C1CCN(C(=O)c2ccc(-c3csnn3)cc2)CC1 [Compound 109] | 25 to 100 nM
10 | CC[C@H]1CN(c2ncc(-c3ncco3)cc2Cl)CCN1C1CCN(Cc2ccc(Cl)cc2F)CC1 [Compound 140] | > 100 nM
11 | CC[C@H]1CN(c2ncc(-c3ncc[nH]3)cc2Cl)CCN1C1CCN(Cc2ccc(C(=O)O)cc2)CC1 [Compound 162] | > 100 nM
12 | CC[C@H]1CN(c2ncc(C3NC(=O)NC3=O)cc2Cl)CCN1C1CCN(Cc2ccc(Cl)cc2)CC1 (stereo partly drawn) [Compound 119] | 25 to 100 nM
13 | CC[C@H]1CN(c2ncc(C3=NCCN3)cc2Cl)CCN1C1CCN(Cc2ccc(C#CC(C)(C)NS(N)(=O)=O)cc2)CC1 [Compound 131] | 25 to 100 nM
14 | CC[C@H]1CN(c2ncc(-c3ncc[nH]3)cc2Cl)CCN1[C@@H]1CCN(Cc2ccc(Cl)cc2C(=O)NC)C[C@H]1O [Compound 170] | > 100 nM
15 | CC[C@H]1CN(c2ncc(C3=NC(C)(C)CN3)cc2Cl)CCN1C1CCN(C(=O)c2ccc(Cl)cc2)CC1 [Compound 105] | 25 to 100 nM
16 | CC[C@H]1CN(c2ncc(-c3ncc[nH]3)cc2Cl)CCN1C1CCN(Cc2ccc(C(N)=O)cc2)CC1 [Compound 148] | > 100 nM
17 | CC[C@H]1CN(c2ncc(-c3ncc[nH]3)cc2Cl)CCN1[C@H]1CCN(Cc2ccc(Cl)cc2C(=O)NC)C[C@@H]1O [Compound 172] | > 100 nM
18 | CC[C@H]1CN(c2ncc(C3=NCCN3C(=O)c3ccc(Cl)cc3)cc2Cl)CCN1C1CCN(C(=O)c2ccc(Cl)cc2)CC1 [Compound 146] | > 100 nM
19 | CC[C@H]1CN(c2ncc(-c3ncc[nH]3)cc2Cl)CCN1C1CCN(Cc2ccc(Cl)cc2-c2nnn[nH]2)CC1 [Compound 52] | < 25 nM
20 | CC[C@H]1CN(c2ncc(C3=NCCN3)cc2Cl)CCN1C1CCN(Cc2ccc(Cl)cc2F)CC1 [Compound 26] | < 25 nM
21 | CC[C@H]1CN(c2ncc(-c3ncc[nH]3)cc2Cl)CCN1C1CCN(C(=O)c2ccc(N3CCCC3=O)cc2)CC1 [Compound 173] | > 100 nM
22 | CC[C@H]1CN(c2ncc(-c3ncc[nH]3)cc2Cl)CCN1C1CCN([C@@H](C(N)=O)c2ccc(Cl)cc2)CC1 [Compound 91] | < 25 nM

More lines, now with the values ahead:

Row | IC50 | Compound
23 | < 25 nM | CC[C@H]1CN(c2ncc(-c3nnc(CO)o3)cc2Cl)CCN1C1CCN(C(CO)c2ccc(Cl)cc2)CC1 (stereo partly drawn) [Compound 39]
24 | < 25 nM | CC[C@H]1CN(c2ncc(-c3ncc[nH]3)cc2Cl)CCN1C1CCN(C(=O)c2ccc(Cl)cc2N)CC1 [Compound 32]
25 | < 25 nM | CC[C@H]1CN(c2ncc(-c3ncc[nH]3)cc2Cl)CCN1C1CCN(Cc2ccc(Cl)cc2C#N)CC1 [Compound 33]
26 | < 25 nM | CC[C@H]1CN(c2ncc(-c3n[nH]c(=O)[nH]3)cc2Cl)CCN1C1CCN(Cc2ccc(Cl)cc2F)CC1 [Compound 88]
27 | < 25 nM | CC[C@H]1CN(c2ncc(C3=NCCN3)cc2Cl)CCN1C1CCN(Cc2ccc(Cl)cc2C(C)(C)O)CC1 [Compound 44]
28 | < 25 nM | CC[C@H]1CN(c2ncc(-c3ncc[nH]3)cc2Cl)CCN1C1CCN(C(=O)c2ccc(Cl)nc2N)CC1 [Compound 46]
29 | < 25 nM | CC[C@H]1CN(c2ncc(-c3nccn3C(=O)c3ccc(Cl)cc3)cc2Cl)CCN1C1CCN(C(=O)c2ccc(Cl)cc2)CC1 [Compound 55]
30 | < 25 nM | CC[C@H]1CN(c2ncc(C3=NCCN3)cc2Cl)CCN1C1CCN([C@@H](CO)c2ccc(Cl)cc2)CC1 [Compound 7]
31 | < 25 nM | CC[C@H]1CN(c2ncc(-c3ncc[nH]3)cc2Cl)CCN1C1CCN(Cc2ccc(-c3ccccc3)cc2)CC1 [Compound 37]
32 | < 25 nM | CC[C@H]1CN(c2ncc(-c3nc4cc(F)ccc4[nH]3)cc2Cl)CCN1C1CCN(Cc2ccc(Cl)cc2F)CC1 [Compound 96]
33 | < 25 nM | CC[C@H]1CN(c2ncc(-c3nnc(N)o3)cc2C)[C@H](C)CN1C1CCN(Cc2ccc(OC(F)(F)F)cc2)CC1 [Compound 174]
34 | < 25 nM | CC[C@H]1CN(c2ncc(-c3ncc[nH]3)cc2Cl)CCN1C1CCN([C@@H](CO)c2ccc(Cl)cc2)CC1 [Compound 10]
35 | < 25 nM | CC[C@H]1CN(c2ncc(-c3ncc[nH]3)cc2Cl)CCN1C1CCN([C@@H](C(=O)N(C)C)c2ccc(Cl)cc2)CC1 [Compound 97]
36 | < 25 nM | CC[C@H]1CN(c2ncc(-c3ncc[nH]3)cc2Cl)CCN1C1CCN(Cc2ccc(C#N)cc2)CC1 [Compound 17]
37 | < 25 nM | C[C@H]1CN(c2ncc(C3=NCCN3)cc2Cl)CCN1C1CCN(Cc2ccc(Cl)cc2)CC1 [Compound 65]
38 | < 25 nM | CC[C@H]1CN(c2ncc(-c3ncc[nH]3)cc2Cl)CCN1C1CCN(Cc2ccc(Br)cc2)CC1 [Compound 2]
39 | < 25 nM | CC[C@H]1CN(c2ncc(-c3ncc[nH]3)cc2Cl)CCN1C1CCN(Cc2ccc(C#CC(C)(C)C)cc2)CC1 [Compound 25]
40 | < 25 nM | CC[C@H]1CN(c2ncc(-c3ncc[nH]3)cc2Cl)CCN1C1CCN(Cc2ccc(Cl)cc2F)CC1 [Compound 4]
41 | < 25 nM | CCOC(=O)C1CC1c1ccc(CN2CCC(N3CCN(c4ncc(C5=NCCN5)cc4Cl)C[C@@H]3CC)CC2)cc1 (stereo partly drawn) [Compound 75]
42 | < 25 nM | CC[C@H]1CN(c2ncc(-c3nnc(C)o3)cc2Cl)CCN1C1CCN(Cc2ccc(Cl)cc2F)CC1 [Compound 70]
43 | < 25 nM | CC[C@H]1CN(c2ncc(-c3ncc[nH]3)cc2Cl)CCN1C1CCN(Cc2ccc(Cl)cc2)CC1 [Compound 1]
44 | < 25 nM | CC[C@H]1CN(c2ncc(-c3nc(C(O)C(F)(F)F)c[nH]3)cc2Cl)CCN1C1CCN(Cc2ccc(Cl)cc2F)CC1 (stereo partly drawn) [Compound 80]
45 | < 25 nM | CC[C@H]1CN(c2ncc(-c3ncc[nH]3)cc2Cl)CCN1C1CCN(C(=O)c2ccc(C#N)nc2)CC1 [Compound 68]
46 | < 25 nM | CC[C@H]1CN(c2ncc(-c3ncc[nH]3)cc2Cl)CCN1C1CCN(Cc2ccc(Cl)cc2C(=O)OC)CC1 [Compound 50]
47 | < 25 nM | CC[C@H]1CN(c2ncc(C3=NC(C)CN3)cc2Cl)CCN1C1CCN(C(=O)c2ccc(Cl)cc2)CC1 (stereo partly drawn) [Compound 72]
48 | < 25 nM | CC[C@H]1CN(c2ncc(-c3ncc[nH]3)cc2Cl)CCN1C1CCN(Cc2ccc(-n3cncn3)cc2)CC1 [Compound 76]
49 | < 25 nM | CC[C@H]1CN(c2ncc(C3=NCCN3)cc2Cl)CCN1C1CCN(C(=O)c2ccc(Cl)cc2C#N)CC1 [Compound 82]
50 | < 25 nM | CC[C@H]1CN(c2ncc(-c3ncc[nH]3)cc2Cl)CCN1C1CCN(Cc2ccc(Cl)cc2C(N)=O)CC1 [Compound 9]

Same assay, conditions: [125I] IP-10 displacement, Ba/F3-hCXCR3 (N-delta 4) membranes

Row | IC50 | Compound
51 | 0.2 nM | CC[C@H]1CN(c2ncc(-c3ncc[nH]3)cc2Cl)CCN1C1CCN(Cc2ccc(Cl)cc2)CC1 [Compound 1]
